Tests used:
[1] = molecular target: σ1 receptor; set-up: method as in PMID 21278085, PMID 15170821, PMID 18647636, PMID 22935988, PMID 21967807; details: representative σ1 receptor ligands, Fig. 1; cited from earlier work
[2] = molecular target: σ2 receptor; set-up: method as in PMID 21278085, PMID 15170821, PMID 18647636, PMID 22935988, PMID 21967807; details: representative σ1 receptor ligands, Fig. 1; cited from earlier work
[3] = molecular target: T1, σ1 receptor (Cavia porcellus, UniProt Q60492); test: Radioligand binding at σ1 receptor ([3H]-(+)-pentazocine, NIMH PDSP); set-up: species or system Guinea pig; details: ratio of Ki σ2 to Ki σ1
T1 construct: σ1 receptor, [^3H]-(+)-pentazocine, Guinea pig brain homogenate; from tissue; host or cells: Guinea pig brain homogenate
Text: In this study, [^3H] pentazocine and [^3H]DTG (6) were used as the radioligands at σ1 and σ2 receptors. Firstly, we examined the effects of changing the substituents on the benzene ring. […] Mono-halogen substitution on the benzene ring exemplified by compounds 17–20 generally retained affinity for σ1 receptor compared with compound 7. […] The derivatives 21–25 also maintained similar high affinities for the σ1 receptor upon incorporation of two halogen atoms on the benzene ring. However, this is also accompanied with higher binding affinity to the σ2 receptor. […]. Next, we examined the effects of removing the methyl group on the basic nitrogen atom. […] […]. […] The results for the secondary amines 28 and 29 indicate that the hydrogen bond donor on basic nitrogen atom was beneficial for increased binding affinity to the σ1 receptor.
Radioligand competition studies were carried out by the National Institute of Mental Health's Psychoactive Drug Screening Program, Contract #HHSN-271-2008-00025-C (NIMH PDSP). The general procedures are listed as follows:
All the test compounds solution (1 mg mL^−1) were prepared by dissolving in DMSO or buffer solvent (50 mM Tris–HCl, pH = 8.0). The filter-mats were presoaked in 0.5% aqueous polyethyleneimine solution for 2 h at rt before use. All binding experiments were carried out in poly-L-lysine-coated 96-well plate and the final test concentration (50 μM, 5 μM, 1.5 μM, 500 nM, 150 nM, 50 nM, 15 nM, 5 nM, 1.5 nM, 0.5 nM, 0.05 nM) were prepared by addition of Tris–HCl solution (50 mM, pH = 8.0). The following specific radioligands and tissue source were used: (a) σ1 receptor, [^3H]-(+)-pentazocine, Guinea pig brain homogenate; (b) σ2 receptor, [^3H]-DTG, PC-12 cells. 100 μL of corresponding radioligand solution, 100 μL test compound solution and 50 μL of the respective receptor preparation into each well of the plate (total volume 250 μL). During the incubation, the plates were shaken at a speed of 500–600 rpm at the specified temperature (σ1 receptor, 37 °C, 150 min; σ2 receptor, rt, 120 min). The incubation was followed by a rapid vacuum filtration through Whatman GF/B glass filters, and the filtrates were washed twice with 10 mL of cold buffer and transferred to the 6 mL scintillation vials. EcoScint scintillation fluid (4.0 mL) was added, and the radioactivity bound was measured using a Beckman LS 6500 liquid scintillation counter. All experiments were performed at least three times.
For experimental details please refer to the PDSP website http://pdsp.med.unc.edu/.[28]

[4] = test system: PC12 cells; test: NGF-induced neurite outgrowth in PC-12 cells; format: cell-based, rat; details: 10 μM compound with NGF 2.5 ng mL−1, four days
Procedure: PC-12 cells, from rat pheochromocytoma cell lines, were obtained from the American Type Culture Collection (ATCC, Manassas, VA, USA). Undifferentiated PC12 cells were cultured in DMEM complete medium with 10% heat-inactivated horse serum, 5% fetal bovine serum, 100 U mL^−1 penicillin, and 100 μg mL^−1 streptomycin and maintained at 37 °C in a humidified incubator supplemented with 5% CO2. To induce differentiation, PC12 cells were seeded at a density of 1 × 10^4 cells per mL on a poly-L-lysine-coated 96-well plate and cultured in complete medium containing 2.5 ng mL^−1 NGF or different tested compounds (10 μM) concomitant with 2.5 ng mL^−1 NGF administration. Four days after incubation, morphometric analysis was performed on digitized images of live cells taken under phase contrast illumination with an inverted microscope linked to a camera. Images of five fields per well were taken with an average of 20 cells per field. The number of differentiated cells was determined by counting cells that had at least one neurite with a length equal to the cell body diameter and was expressed as a percentage of the total cells in the field. The counting was performed in a blinded manner. All experiments were performed at least five times.

[5] = molecular target: T1, σ1 receptor; set-up: method as in PMID 27309376; details: [3H]-(+)-pentazocine; Guinea pig homogenate; compound 7 value from the literature; cited from earlier work
[6] = molecular target: DAT: dopamine transporter (Homo sapiens, UniProt Q01959); set-up: method as in PMID 27309376; details: [3H] WIN35428; literature values; cited from earlier work
[7] = molecular target: NET: norepinephrine transporter (Homo sapiens, UniProt P23975); set-up: method as in PMID 27309376; details: [3H] nisoxetine; literature values; cited from earlier work
[8] = molecular target: SERT: serotonin transporter (Homo sapiens, UniProt P31645); set-up: method as in PMID 27309376; details: [3H] citalopram; literature values; cited from earlier work
Sequence of SERT: serotonin transporter (P31645 whole entry): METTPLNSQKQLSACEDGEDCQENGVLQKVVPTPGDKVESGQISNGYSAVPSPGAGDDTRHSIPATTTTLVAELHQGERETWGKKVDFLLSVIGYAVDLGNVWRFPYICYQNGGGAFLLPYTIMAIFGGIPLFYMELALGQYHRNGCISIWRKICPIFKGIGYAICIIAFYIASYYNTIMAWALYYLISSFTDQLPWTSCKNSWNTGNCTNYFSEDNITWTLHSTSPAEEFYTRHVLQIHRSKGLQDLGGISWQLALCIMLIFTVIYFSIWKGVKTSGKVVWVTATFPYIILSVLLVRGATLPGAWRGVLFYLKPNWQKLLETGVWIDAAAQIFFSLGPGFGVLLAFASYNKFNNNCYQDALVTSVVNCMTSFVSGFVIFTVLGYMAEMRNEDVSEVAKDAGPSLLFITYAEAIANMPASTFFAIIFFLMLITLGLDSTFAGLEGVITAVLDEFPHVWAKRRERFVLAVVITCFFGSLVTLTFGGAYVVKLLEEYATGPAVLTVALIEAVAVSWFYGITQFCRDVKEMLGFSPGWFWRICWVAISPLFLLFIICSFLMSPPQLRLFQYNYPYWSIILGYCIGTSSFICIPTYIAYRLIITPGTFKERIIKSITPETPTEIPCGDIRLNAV

T1 sequence (Q60492 whole entry): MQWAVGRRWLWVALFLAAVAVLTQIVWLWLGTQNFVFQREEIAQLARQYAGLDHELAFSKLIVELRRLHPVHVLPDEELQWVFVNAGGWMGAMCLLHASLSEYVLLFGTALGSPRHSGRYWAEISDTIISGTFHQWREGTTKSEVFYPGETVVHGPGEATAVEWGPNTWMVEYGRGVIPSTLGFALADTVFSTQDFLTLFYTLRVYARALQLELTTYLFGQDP
Sequence of DAT: dopamine transporter (Q01959 whole entry): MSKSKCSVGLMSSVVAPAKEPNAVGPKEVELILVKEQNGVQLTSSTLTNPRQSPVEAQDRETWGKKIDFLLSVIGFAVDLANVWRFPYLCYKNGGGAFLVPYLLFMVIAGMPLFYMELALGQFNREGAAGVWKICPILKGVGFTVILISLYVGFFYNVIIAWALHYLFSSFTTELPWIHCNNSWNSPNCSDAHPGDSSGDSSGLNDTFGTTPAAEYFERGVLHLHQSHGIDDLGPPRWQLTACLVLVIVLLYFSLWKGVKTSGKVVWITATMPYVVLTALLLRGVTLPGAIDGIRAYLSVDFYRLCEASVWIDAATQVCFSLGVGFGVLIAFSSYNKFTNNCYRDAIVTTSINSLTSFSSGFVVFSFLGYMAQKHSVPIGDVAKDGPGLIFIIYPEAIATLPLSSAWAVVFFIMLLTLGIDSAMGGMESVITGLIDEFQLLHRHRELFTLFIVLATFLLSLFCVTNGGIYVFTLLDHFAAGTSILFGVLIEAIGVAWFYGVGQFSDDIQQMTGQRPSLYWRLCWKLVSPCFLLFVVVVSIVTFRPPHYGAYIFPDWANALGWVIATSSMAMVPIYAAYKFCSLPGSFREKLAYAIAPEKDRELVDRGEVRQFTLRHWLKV
Sequence of NET: norepinephrine transporter (P23975 whole entry): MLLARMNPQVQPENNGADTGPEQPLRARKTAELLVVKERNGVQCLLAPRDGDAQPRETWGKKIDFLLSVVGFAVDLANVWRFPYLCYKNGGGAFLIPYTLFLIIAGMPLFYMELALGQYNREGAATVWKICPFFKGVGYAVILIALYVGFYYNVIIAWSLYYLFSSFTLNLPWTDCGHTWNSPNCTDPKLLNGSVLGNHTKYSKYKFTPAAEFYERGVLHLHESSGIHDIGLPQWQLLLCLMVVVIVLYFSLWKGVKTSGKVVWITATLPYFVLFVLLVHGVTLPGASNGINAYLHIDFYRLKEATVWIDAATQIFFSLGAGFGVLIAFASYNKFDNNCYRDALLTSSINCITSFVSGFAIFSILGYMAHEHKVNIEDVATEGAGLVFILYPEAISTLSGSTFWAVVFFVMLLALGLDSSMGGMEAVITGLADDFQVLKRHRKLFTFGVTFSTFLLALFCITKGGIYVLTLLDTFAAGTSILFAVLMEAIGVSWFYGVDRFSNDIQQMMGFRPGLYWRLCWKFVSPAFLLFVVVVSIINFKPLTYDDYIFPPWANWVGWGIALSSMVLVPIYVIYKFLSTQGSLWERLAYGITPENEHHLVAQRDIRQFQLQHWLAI

| Structure (SMILES) | Ki [1] [µM] | Ki [2] [µM] | Selectivity (Ki σ2/Ki σ1) [3] | Effect on NGF-induced neurite outgrowth [4] | Ki [5] [µM] | Ki, DAT [6] | Ki, NET [7] | Ki, SERT [8] |
| --- | --- | --- | --- | --- | --- | --- | --- | --- |
| COc1ccc(CCN2CCN(CCCc3ccccc3)CC2)cc1OC [SA4503] | 0.017 | 1.8 |  |  |  |  |  |  |
| CN(CCOc1cc(COc2ccccc2)on1)C1CCC1 [Compound 7] |  |  | 171 | synergistic neurite outgrowth effects at a level similar to that of the positive control RC-33 | 0.0018 ± 0.0002 | NA ^c (NA: not active, defined as <50% binding in the primary assay at 10 μM) | NA (NA: not active, defined as <50% binding in the primary assay at 10 μM) | NA (NA: not active, defined as <50% binding in the primary assay at 10 μM) |
| CCCN(CCC)CCc1ccc(OC)c(OCCc2ccccc2)c1 [NE-100] | 0.00103 | 0.212 |  |  |  |  |  |  |

From publication PMC9078399, “Discovery of N-cyclobutylaminoethoxyisoxazole derivatives as novel sigma-1 receptor ligands with neurite outgrowth efficacy in cells” (RSC Advances, 2018)
